Test results published in US9987299B2, “Methods of improving RNAi in well-differentiated airway epithelia” (University of Iowa Research Foundation, priority 2014, dated 2018).

Tests used:
Human HPRT mRNA = test: HPRT mRNA silencing by DsiRNA-Transductin in well-differentiated HAE (RT-qPCR); type: cell-based
Description: FIG. 1. […] (a) Well-differentiated HAE cultures grown at the ALI were incubated in adding HPRT-targeting or control NC1 DsiRNA (250 nM) formulated with Transductin containing 0.1 or 0.01 mg LOS (HPRT-targeting DsiRNAs) or 0.1 mg LOS (NC1 DsiRNA). After 4 hours, the apical surface was rinsed and 24 hours later, target RNA levels quantified by RT-qPCR. All mRNA levels were normalized to NC1-treated samples. Mean levels were calculated from three biological replicates, each done in triplicate. ***p<0.001, **p<0.01 (Student's t-test). […] Samples were normalized to NC1-treated cells. ***p<0.001, **p<0.01 (Student's t-test). […] PAFRa was present throughout transfection in cells pre-treated with the reagent. Cells were harvested and RNA quantified 24 hrs later. Samples were normalized to NC1-treated cells. **p<0.01 (Student's t-test).
FIG. 3. Spiperone improves RNAi responses in DsiRNA transduced cells. HAE were pre-treated with various small molecules at the concentration indicated. The drugs were added to the apical surface and the basolateral media for 6 hours. Both surfaces were then washed and HPRT or NC1 DsiRNA formulated with Transductin added to the apical surface. The cells were washed after 4 hours, and RT-qPCR done on cell lysates harvested 24 hours later.
Human airway epithelial cells were obtained from trachea and bronchi of lungs removed for organ donation from non-CF individuals. Cells were isolated by enzyme digestion as previously described. Following enzymatic dispersion, cells were seeded at a density of 5×10^5 cells/cm^2 onto collagen-coated, 0.6 cm^2 semi permeable membrane filters (Millipore polycarbonate filters; Millipore Corp., Bedford, Mass.). The cells were maintained at 37° C. in a humidified atmosphere of 5% CO2 air. Twenty-four hours after plating, the apical media was removed and the cells were maintained at an air-liquid interface (ALI) to allow differentiation of the epithelium. The culture medium consisted of 1:1 ratio mix of Dulbecco's modified Eagle's medium (DMEM)/Ham's F12, 5% Ultroser G (Biosepra S A, Cedex, France), 100 U/ml penicillin, 100 μg/ml streptomycin, 1% nonessential amino acids and 0.12 U/ml insulin. Studies were performed on well-differentiated epithelia approximately 4 to 6 weeks after initiation of the ALI cultures conditions. HEp-2 cells were maintained in MEM substituted with 10% fetal bovine serum and 100 U/ml penicillin.
PAF was purchased from Sigma-Aldrich. The reagent was reconstituted in ethanol and used in the experiment at a concentration of 200 nM or as described in the figures. PAF was added to the transfection mixture at the apical surface as well as to the basolateral media. PAFRa (WEB 2086) was purchased from Sigma-Aldrich. […] The reagent was incubated with the cells throughout the transfection period.
All the small molecules tested were purchased from Sigma-Aldrich. The chemicals were reconstituted in appropriate solutions as recommended by the manufacturer. The epithelia were pre-treated with drugs for 6 hours at concentrations used in the CMAP study or noted in the published literature. Following drug treatment, the epithelia were transduced with DsiRNA as described above.
For well-differentiated airway epithelia, transfection was performed mostly according to the manufacturer's protocol. In all cases, the apical surface of epithelia was rinsed twice with PBS before adding the transfection mixture to the apical surface. DsiRNAs were used at a concentration of 250 nM. The mixture was left on the cells for 4 hours after which the medium was removed, the apical surface rinsed with PBS and the cells incubated further for 24 hours. For all experiments, a minimum of 3 biological replicates, in triplicate, were done.
Total RNA was isolated using SV96 RNA isolation kit (Promega, Madison, Wis.), according to manufacturer's protocol. […]

RSV strain A2 = test: RSV titer in apical washings of infected HAE (plaque assay on HEp-2 cells); type: cell-based, Respiratory Syncytial Virus
From the text: FIG. 6. […] HAE was either treated or untreated with PAF in concurrence with RSV N DsiRNA. Six hours later the cells were infected with RSV at an MOI of 1. Forty eight hours later, the cell washings from the apical surface was collected and assayed for viral titer (a). The cells were lysed and the proteins visualized after immunoprecipitation with anti-RSV antibodies (b) and the bands quantified by densitometry (c). Data are mean±SD from the results three different experiments, each using a different donor. ***p<0.001 (Student's t-test).
For infections, RSV aliquots were resuspended in cold DMEM or DMEM/F12. RSV strain A2 (wt RSV) was kindly provided by Barney Graham (NIH, Bethesda, Md.), and working stocks of RSV were prepared in HEp-2 cells (ATCC).
RSV infection of HAE for both for immunoblot and viral titer was done at an MOI of 1. The virus was thawed at 37° C. and diluted in MEM (0% FCS) to a volume of 70 μl (1MOI)/well. The cells in Millicell filters were rinsed with the same media once and the virus applied to the apical surface. The plate was incubated at 37° C. for a period of 2 hours. […]
HEp-2 cells were seeded onto 12-well plate at a sufficient density so that it reached 90-95% confluence the next day. […] The cells were incubated for an additional 24 hours at 37° C. after which the plaques were counted under a light box. […]

CFTR channel activity = test: Transepithelial short-circuit current and conductance in HAE; type: cell-based, human; settings: PAF treated and CFTR DsiRNA transduced cells

Substance: platelet activating factor [PAF]
- duration of knock down: HPRT mRNA levels (Human HPRT mRNA; 1 and 3 days post PAF-assisted transfection): significantly reduced
- duration of knock down: HPRT transcript levels (Human HPRT mRNA; 6 and 10 days post PAF-assisted transfection): returning to basal levels
- dose-response of PAF on DsiRNA silencing (Human HPRT mRNA; PAF at different doses, 4 hours with HPRT DsiRNA-Transductin (FIG. 7)): A dose-response relationship for PAF on DsiRNA silencing was observed
- reduction of viral titers from apical rinses (RSV strain A2; PAF with RSV N DsiRNA-Transductin, RSV MOI 1 six hours later, 48 hours after infection): more than 100 fold
- effect on viral titers (RSV strain A2; PAFR activation alone (no RSV N DsiRNA effect)): did not reduce viral titers
- cAMP-activated changes in transepithelial current and conductance (CFTR channel activity): significantly reduced
